How the values were obtained:
NO production in HUVECs = assay: Histamine-induced NO production (nitrite and nitrate); format: cell-based, human; details: histamine 10 μM, no pretreatment
Protocol: (§1) In Examples 4 to 6, human umbilical vein endothelial cells (hereinafter, sometimes referred to as “HUVECs”, manufactured by Lonza) were cultured in EGM-2 (manufactured by Lonza K.K.). These cells (passages 4 to 9) were used for experiments after 4-hour starvation in EBM-2 (manufactured by Lonza K.K.) containing 2% FBS.
The HUVECs were washed three times with HEPES and incubated in HEPES supplemented with 1 mM L-arginine and 10 μM tetrahydrobiopterin. After equilibration for 30 minutes, the medium was exchanged, and the cells were incubated for additional 30 minutes. […] The conditioned media before and after the stimulation (100 μL each) were collected and centrifuged in each amount of 300 g for 3 minutes. The supernatants were collected, and used to measure nitrite and nitrate, as stable metabolites of NO, by an ENO-20 NOx analyzer (manufactured by Eicom Corporation). The degrees of increases of nitrite and nitrate levels after the stimulation were normalized with cellular protein contents.

ear vessels of the mice = assay: In vivo microscopy of ear vessels: FITC-dextran leakage and vascular diameter after histamine; parameters: species or system mouse; details: histamine 400 μg by instillation, no pretreatment
Protocol: To visualize the ear vessels of the mice, 70 kDa fluorescein isothiocyanate-dextran (10 mg/kg, manufactured by Sigma-Aldrich) was injected intravenously. Then, immediately after the administration of fluorescein isothiocyanate-dextran, 5,6-DiHETE (0.1 μg) was administered by instillation (percutaneously administered) as a pretreatment, and this group of mice was designated as a “5,6-DiHETE-administered group.” As a control group, a group of mice not administered with 5,6-DiHETE was designated as a “[…]-administered group”. Then, 15 minutes after the administration by instillation, histamine (400 μg) was administered by instillation (percutaneously administered) into the ventral surface of the ears for both the groups. Next, the mice were placed on the stage of a microscope confocal microscope (ECLIPSE Ti with C1 confocal system, manufactured by Nikon Corporation), and their body temperatures were maintained at 37° C. Dextran leakage and vascular diameter in the ears were monitored every minute in a period from 0 to 30 minutes after the administration of histamine using EZ-C1 Free Viewer (manufactured by Nikon Corporation), and the dextran leakage, artery diameter and vein diameter were quantified according to the description of Omori, K. et al., British Journal of Pharmacology, 171:4879-4889 (2014). It is known that smooth muscle contraction reduces the downstream blood flow and limits the vascular leakage, whereas smooth muscle relaxation (increase of vascular diameter) increases the blood flow, thereby leading to vascular leakage.

anaphylaxis model mice = assay: Histamine-induced anaphylaxis: blood pressure and body temperature; format: in vivo, mouse (C57BL/6); details: 30 minutes after histamine 50 mg/kg intravenously, no pretreatment
Protocol: Histamine (50 mg/kg) lysed in a physiological saline solution was intravenously administered to C57BL/6 strain mice (male, 8 to 12 weeks old) to prepare anaphylaxis model mice (hereinafter, sometimes referred to as “anaphylaxis group”). […] L-NAME is an NO synthesis inhibitor. As indices of anaphylactic symptoms, a body temperature decrease and a blood pressure decrease were observed.

[1] = tested on: histamine-induced vascular permeability in mouse ears; assay: Modified Miles assay: histamine-induced vascular hyperpermeability (Evans blue extravasation); format: in vivo, mouse (C57BL/6); details: 400 μg histamine, no pretreatment
Protocol: Fifteen (15) minutes after the intracutaneous injection, a vehicle (80% acetone) or histamine (400 μg, manufactured by Molecular Probes) was percutaneously administered to the ventral surface of the ears. To evaluate vascular permeability, Evans blue (50 mg/kg, manufactured by Sigma) was injected intravenously 5 minutes after the administration of histamine. The mice were then euthanized by cervical dislocation 30 minutes after the injection of Evans blue. The ears were dissected, dried at 55° C., and weighed. Extravasated Evans blue present in the ears was extracted in formamide (manufactured by Molecular Probes), and quantified spectrophotometrically (manufactured by PerkinElmer Japan Co., Ltd.) at a wavelength of 610 nm.

HUVECs = assay: Endothelial barrier function: transendothelial electrical resistance (TER); format: cell-based, human; details: histamine 10 μM, no pretreatment
Protocol: as §1
The in vitro endothelial barrier function was evaluated by measuring the transendothelial electrical resistance (hereinafter, sometimes referred to as “TER”) of the HUVECs prepared in the above item (1) over time. Specifically, the transendothelial electrical resistance was measured using an xCELLigence Real-Time Cell Analyzer DP system (manufactured by Roche). The system monitors changes in TER across an interdigitated microelectrode at the bottom of tissue culture E-plates (manufactured by Roche). The HUVECs (8,000 cells) were plated on the E-plates and incubated until confluent. Then, the following operation (a) or (b) was performed.
(a) Each reagent was added to plates on which the HUVECs were cultured, so as to give a vehicle, 1 U/mL thrombin, 1 μM forskolin, or 0.1 μM or 0.3 μM 5,6-DiHETE (FIGS. 4A and 4B).
(b) A vehicle or […] was added to plates on which the HUVECs were cultured, so as to attain 10 μM. […] Thirty (30) minutes after the addition, 10 μM histamine was added to each plate 30 minutes after the addition (FIGS. 4C and 4D).
In the above operations (a) and (b), the TER was measured every 60 seconds. For normalization, the cell index value at each time point is shown as a ratio relative to the initial value. The maximum normalized cell index after stimulation was quantified and represented as maximal response. Note that it is known that the disruption of the endothelial barrier function lowers the TER, but that the enhancement of the endothelial barrier function increases the TER.

[2] = tested on: calcium ion concentration in HUVECs; assay: Histamine-induced increase of calcium ion concentration (fura-2); format: cell-based, human; details: histamine 10 μM, no pretreatment
Protocol: These cells (passages 4 to 9) were used for experiments after 4-hour starvation in EBM-2 (manufactured by Lonza K.K.) containing 2% FBS.
HUVECs were incubated with a calcium fluorescence indicator (3 μg fura-2/AM containing 0.11% Cremophor EL) for 30 minutes and washed with an HEPES buffer three times. […] Then, 5 minutes after the addition of each reagent, histamine was added so as to attain 10 μM. In addition, a group to which histamine was added so as to attain 10 μM without pretreatment was also prepared. A cover slip was placed in a specialized airtight chamber mounted onto the stage of a microscope maintained at 37° C. The HUVECs were excited at 340 nm and 380 nm and the emitted fluorescence signal was measured every 3 seconds at 510 nm for 60 seconds. The fluorescence ratio (R:F340/F380) was determined using a fluorescence imaging system (AQUACOSMOS, manufactured by Hamamatsu Photonics K.K.). After the experiment, 1 μM ionomycin was added and the fluorescence changes were measured in the presence of 0 or 1.5 mM calcium ions. The calcium ion concentration was indicated as A fluorescence ratio. AUC was calculated 1 minute after each stimulus to evaluate the A fluorescence ratio. It is known that the increase of calcium ion concentration in endothelial cells promotes NO production by eNOS phosphorylation and […] smooth muscle cells (Garcia-Cardena, G. et al., Nature, 392: 821-824(1998); and Luo, Z. et al., The Journal of clinical investigation, 106: 493-499(2000)).

NCCc1c[nH]cn1 [histamine, reference compound]
NO production (NO production in HUVECs): 0.31±0.06 pmol/μg protein
artery diameter as compared with arteries nonstimulated with histamine (ear vessels of the mice): 178±13%
body temperature decrease (anaphylaxis model mice): −2.2±0.3 °C
blue dye extravasation (Evans blue) in ear [1]: 0.14 ± 0.02 µg/mg
TER, minimum (normalized cell index) (HUVECs): 0.82±0.05 fold
calcium ion concentration, AUC at 1 minute after stimulation [2]: 12.2±2.1

From patent publication US12285434B2, “Therapeutic, preventive, or improvement agent for inflammatory disease and allergic disease” (The University of Tokyo, priority 2018, dated 2025)
